Measurements from the CheMixHub viscosity set.
± gives the uncertainty stated by the source.

Assay: xn = mol fraction of the nth substance listed

COc1ccccc1 + CCCCCCO
viscosity [mPa·s], 101.33 kPa
Conditions	x1 = 0.0998	x1 = 0.2	x1 = 0.3002	x1 = 0.4	x1 = 0.5	x1 = 0.6002	x1 = 0.6997	x1 = 0.8001	x1 = 0.9
303.15 K	3.055 ± 0.071	2.413 ± 0.057	1.969 ± 0.047	1.661 ± 0.04	1.423 ± 0.034	1.27 ± 0.031	1.097 ± 0.035	1.009 ± 0.033	0.927 ± 0.03
313.15 K	2.325 ± 0.055	1.886 ± 0.045	1.569 ± 0.038	1.334 ± 0.032	1.166 ± 0.037	1.049 ± 0.034	0.932 ± 0.03	0.858 ± 0.028	0.798 ± 0.027
323.15 K	1.798 ± 0.043	1.481 ± 0.036	1.248 ± 0.031	1.107 ± 0.035	0.966 ± 0.031	0.878 ± 0.029	0.786 ± 0.026	0.744 ± 0.025	0.699 ± 0.024

CC1COC(=O)O1 (stereo unspecified) + CO
Conditions	viscosity [mPa·s]
298 K, 101.3 kPa, x1 = 0.0206	0.5726 ± 0.004
298 K, 101.3 kPa, x1 = 0.0401	0.593 ± 0.0041
298 K, 101.3 kPa, x1 = 0.0604	0.6164 ± 0.0042
298 K, 101.3 kPa, x1 = 0.0808	0.6364 ± 0.0043
298 K, 101.3 kPa, x1 = 0.1018	0.6594 ± 0.0045
298 K, 101.3 kPa, x1 = 0.2016	0.7765 ± 0.0052
298 K, 101.3 kPa, x1 = 0.301	0.9078 ± 0.006
298 K, 101.3 kPa, x1 = 0.401	1.058 ± 0.0069
298 K, 101.3 kPa, x1 = 0.5016	1.229 ± 0.008
298 K, 101.3 kPa, x1 = 0.6002	1.418 ± 0.0091
298 K, 101.3 kPa, x1 = 0.7006	1.635 ± 0.01
298 K, 101.3 kPa, x1 = 0.8004	1.877 ± 0.012
298 K, 101.3 kPa, x1 = 0.9007	2.148 ± 0.014
298.15 K, 101.33 kPa, x2 = 0.0512	2.266 ± 0.017
298.15 K, 101.33 kPa, x2 = 0.0983	2.097 ± 0.015
298.15 K, 101.33 kPa, x2 = 0.1406	1.958 ± 0.014
298.15 K, 101.33 kPa, x2 = 0.1883	1.811 ± 0.013
298.15 K, 101.33 kPa, x2 = 0.2587	1.616 ± 0.011
298.15 K, 101.33 kPa, x2 = 0.343	1.414 ± 0.0098
298.15 K, 101.33 kPa, x2 = 0.3986	1.298 ± 0.0089
298.15 K, 101.33 kPa, x2 = 0.4723	1.167 ± 0.0079
298.15 K, 101.33 kPa, x2 = 0.5124	1.107 ± 0.0075
298.15 K, 101.33 kPa, x2 = 0.5819	1.001 ± 0.0067
298.15 K, 101.33 kPa, x2 = 0.6762	0.8678 ± 0.0058
298.15 K, 101.33 kPa, x2 = 0.758	0.7707 ± 0.0052
298.15 K, 101.33 kPa, x2 = 0.8297	0.6887 ± 0.0047
298.15 K, 101.33 kPa, x2 = 0.9256	0.5981 ± 0.0042
298.15 K, 101.33 kPa, x2 = 0.9495	0.5805 ± 0.0041
308.15 K, 101.33 kPa, x2 = 0.0512	1.895 ± 0.014
308.15 K, 101.33 kPa, x2 = 0.0983	1.757 ± 0.013
308.15 K, 101.33 kPa, x2 = 0.1406	1.648 ± 0.012
308.15 K, 101.33 kPa, x2 = 0.1883	1.533 ± 0.011
308.15 K, 101.33 kPa, x2 = 0.2587	1.377 ± 0.0098
308.15 K, 101.33 kPa, x2 = 0.343	1.213 ± 0.0085
308.15 K, 101.33 kPa, x2 = 0.4723	1.002 ± 0.0069
308.15 K, 101.33 kPa, x2 = 0.5124	0.948 ± 0.0065
308.15 K, 101.33 kPa, x2 = 0.5819	0.8651 ± 0.0059
308.15 K, 101.33 kPa, x2 = 0.6762	0.7581 ± 0.0052
308.15 K, 101.33 kPa, x2 = 0.8297	0.6034 ± 0.0042
308.15 K, 101.33 kPa, x2 = 0.8931	0.5517 ± 0.0039
308.15 K, 101.33 kPa, x2 = 0.9256	0.5282 ± 0.0038
308.15 K, 101.33 kPa, x2 = 0.9495	0.5118 ± 0.0037
318.15 K, 101.33 kPa, x2 = 0.0512	1.594 ± 0.012
318.15 K, 101.33 kPa, x2 = 0.0983	1.48 ± 0.011
318.15 K, 101.33 kPa, x2 = 0.1406	1.393 ± 0.01
318.15 K, 101.33 kPa, x2 = 0.1883	1.296 ± 0.0095
318.15 K, 101.33 kPa, x2 = 0.2587	1.169 ± 0.0084
318.15 K, 101.33 kPa, x2 = 0.343	1.034 ± 0.0074
318.15 K, 101.33 kPa, x2 = 0.3986	0.9607 ± 0.0068
318.15 K, 101.33 kPa, x2 = 0.4723	0.8683 ± 0.0061
318.15 K, 101.33 kPa, x2 = 0.5124	0.8232 ± 0.0058
318.15 K, 101.33 kPa, x2 = 0.5819	0.7459 ± 0.0052
318.15 K, 101.33 kPa, x2 = 0.8297	0.5281 ± 0.0038
318.15 K, 101.33 kPa, x2 = 0.8931	0.4829 ± 0.0036
318.15 K, 101.33 kPa, x2 = 0.9256	0.4621 ± 0.0034
318.15 K, 101.33 kPa, x2 = 0.9495	0.4486 ± 0.0034

C1CCOC1 + CC#N
viscosity [mPa·s], 101 kPa
Conditions	x2 = 0.1633	x2 = 0.3052	x2 = 0.4295	x2 = 0.5394	x2 = 0.6372	x2 = 0.7249	x2 = 0.8039	x2 = 0.8754	x2 = 0.9405
298.15 K	0.4419 ± 0.011	0.4236 ± 0.011	0.4075 ± 0.011	0.3932 ± 0.01	0.3808 ± 0.0099	0.3701 ± 0.0097	0.3611 ± 0.0094	0.3539 ± 0.0092	0.3481 ± 0.0091
308.15 K	0.4066 ± 0.011	0.3875 ± 0.01	0.3701 ± 0.0097	0.355 ± 0.0093	0.3425 ± 0.009	0.3321 ± 0.0087	0.3242 ± 0.0085	0.3184 ± 0.0083	0.3145 ± 0.0082
318.15 K	0.3683 ± 0.0096	0.3497 ± 0.0091	0.334 ± 0.0087	0.3202 ± 0.0084	0.3089 ± 0.0081	0.3001 ± 0.0079	0.2938 ± 0.0077	0.2901 ± 0.0076	0.2879 ± 0.0076

Cc1ccccc1 + CCCCO
viscosity [mPa·s]
Conditions	298.15 K	303.15 K	308.15 K	313.15 K	318.15 K
101 kPa, x1 = 0.092	2.01 ± 0.07	1.769 ± 0.062	1.581 ± 0.056	1.393 ± 0.05	1.292 ± 0.047
101 kPa, x1 = 0.1987	1.59 ± 0.057	1.459 ± 0.052	1.323 ± 0.048	1.199 ± 0.044	1.106 ± 0.041
101 kPa, x1 = 0.2983	1.279 ± 0.046	1.181 ± 0.043	1.076 ± 0.04	0.9827 ± 0.037	0.9514 ± 0.036
101 kPa, x1 = 0.393	1.084 ± 0.04	1.004 ± 0.037	0.9192 ± 0.035	0.8418 ± 0.032	0.8198 ± 0.032
101 kPa, x1 = 0.5091	0.8978 ± 0.034	0.8372 ± 0.032	0.7739 ± 0.03	0.714 ± 0.028	0.7048 ± 0.028
101 kPa, x2 = 0.12	0.56 ± 0.006	–	–	–	–
101 kPa, x2 = 0.24	0.635 ± 0.006	–	–	–	–
101 kPa, x2 = 0.35	0.715 ± 0.007	–	–	–	–
101 kPa, x2 = 0.45	0.84 ± 0.008	–	–	–	–
101 kPa, x2 = 0.55	0.997 ± 0.01	–	–	–	–
101 kPa, x2 = 0.65	1.199 ± 0.012	–	–	–	–
101 kPa, x2 = 0.74	1.441 ± 0.014	–	–	–	–
101 kPa, x2 = 0.83	1.73 ± 0.017	–	–	–	–
101 kPa, x2 = 0.92	2.12 ± 0.021	–	–	–	–
101.33 kPa, x1 = 0.0859	–	1.86 ± 0.03	1.656 ± 0.027	1.489 ± 0.024	–
101.33 kPa, x1 = 0.2006	–	1.452 ± 0.023	1.311 ± 0.021	1.193 ± 0.02	–
101.33 kPa, x1 = 0.2972	–	1.175 ± 0.019	1.065 ± 0.018	0.979 ± 0.016	–
101.33 kPa, x1 = 0.3877	–	0.999 ± 0.017	0.911 ± 0.015	0.84 ± 0.014	–
101.33 kPa, x1 = 0.5025	–	0.833 ± 0.014	0.77 ± 0.013	0.713 ± 0.013	–
101.33 kPa, x1 = 0.6013	–	0.726 ± 0.013	0.675 ± 0.012	0.629 ± 0.011	–
101.33 kPa, x1 = 0.7617	–	0.59 ± 0.011	0.557 ± 0.01	0.524 ± 0.01	–
101.33 kPa, x1 = 0.8121	–	0.571 ± 0.01	0.534 ± 0.01	0.507 ± 0.007	–
101.33 kPa, x1 = 0.947	–	0.526 ± 0.01	0.498 ± 0.007	0.478 ± 0.007	–
